Results as given in paper PMC6950716, “Bioactive Secondary Metabolites from the Culture of the Mangrove-Derived Fungus Daldinia eschscholtzii HJ004” (Marine Drugs, 2019).
In brackets after ≈: the same amount, converted by molar mass.

Molecular target: α-glucosidase
Experiment: α-glucosidase inhibition assay in 96-well plates (modified Sawada et al.)
Format: biochemical

COC1=CC(=O)c2c(cc3c(c2O)COC3)C1=O [compound 4, 5-hydroxy-2-methoxynaphtho[9–c]furan-1,4-dione]
IC50: 5.7 µg/mL (≈ 23.2 µM)

COc1cccc2cc(C(C)=O)oc12 [compound 7, 2-acetyl-7-methoxybenzofuran]
IC50: 1.1 µg/mL (≈ 5.78 µM)
